We go through 23 compounds from patent US9266883B2, “Ring-fused bicyclic pyridyl derivatives as FGFR4 inhibitors” (Novartis AG, priority 2013, dated 2016).

Experiment [1] addresses FGFR4 (GST-FGFR4(388-802)) (Homo sapiens (Human), UniProt P22455). Kind of experiment: In-vitro biochemical kinase assay for FGFR4 (Caliper microfluidic mobility shift). The following applies: read-out: Biochemical FGFR4 IC50.
In experiment [2] the test system is HuH-7 hepatocellular carcinoma cells. Kind of experiment: CellTiter Glo (CTG) Assay. Conditions: Homo sapiens, Huh-7, 72 h, read-out: HUH7 proliferation (nM) CTG. For orientation: Cellular ATP, detected with luciferase, serves as a proxy for viable cell number.
Another experiment addresses Tel-FGFR4 (Homo sapiens (Human), UniProt P22455). Kind of experiment: In vitro cellular kinase assay for FGFR4 (BaF3-Tel-FGFR4 cells, MSD capture ELISA of tyrosine phosphorylation). It counts as cell-based. The following applies: BaF3-Tel-FGFR4 cells, 1 hour incubation; read-out: Cellular BaF3 FGFR4 IC50. (ELISA stands for enzyme-linked immunosorbent assay.)
The target in a further experiment is FGFR3 (411-806) (Homo sapiens (Human), UniProt P22607). Kind of experiment: In vitro biochemical assay for FGFR3.
Chain of FGFR3 (411-806) (P22607 411-806): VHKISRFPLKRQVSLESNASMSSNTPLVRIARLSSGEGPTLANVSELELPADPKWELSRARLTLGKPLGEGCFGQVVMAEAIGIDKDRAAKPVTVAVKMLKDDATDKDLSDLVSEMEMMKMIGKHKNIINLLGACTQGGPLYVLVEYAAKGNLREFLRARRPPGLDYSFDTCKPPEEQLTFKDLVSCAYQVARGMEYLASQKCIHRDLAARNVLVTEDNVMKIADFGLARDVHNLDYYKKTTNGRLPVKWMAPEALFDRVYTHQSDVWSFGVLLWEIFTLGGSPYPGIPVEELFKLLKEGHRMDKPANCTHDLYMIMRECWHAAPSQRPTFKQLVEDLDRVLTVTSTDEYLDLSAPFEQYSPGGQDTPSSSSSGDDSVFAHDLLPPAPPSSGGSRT
The target of a further experiment is FGFR1 (407-822) (Homo sapiens (Human), UniProt P11362). Kind of experiment: In vitro biochemical assay for FGFR1.
Chain of FGFR1 (407-822) (P11362 407-822): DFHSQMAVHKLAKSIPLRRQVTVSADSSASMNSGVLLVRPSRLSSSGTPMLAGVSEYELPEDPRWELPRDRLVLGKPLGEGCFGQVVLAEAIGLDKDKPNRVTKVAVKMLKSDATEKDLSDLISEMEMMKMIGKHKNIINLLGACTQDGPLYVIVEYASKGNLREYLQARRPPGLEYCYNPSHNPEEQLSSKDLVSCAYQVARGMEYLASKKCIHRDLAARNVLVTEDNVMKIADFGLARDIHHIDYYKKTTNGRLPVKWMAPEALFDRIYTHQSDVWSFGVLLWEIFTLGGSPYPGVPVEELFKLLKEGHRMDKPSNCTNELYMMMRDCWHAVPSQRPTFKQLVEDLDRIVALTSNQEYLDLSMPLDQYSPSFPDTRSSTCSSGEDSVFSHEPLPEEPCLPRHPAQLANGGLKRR
The target in the next experiment is FGFR2 (406-821) (Homo sapiens (Human), UniProt P21802). Kind of experiment: In vitro biochemical assay for FGFR2.
Chain of FGFR2 (406-821) (P21802 406-821): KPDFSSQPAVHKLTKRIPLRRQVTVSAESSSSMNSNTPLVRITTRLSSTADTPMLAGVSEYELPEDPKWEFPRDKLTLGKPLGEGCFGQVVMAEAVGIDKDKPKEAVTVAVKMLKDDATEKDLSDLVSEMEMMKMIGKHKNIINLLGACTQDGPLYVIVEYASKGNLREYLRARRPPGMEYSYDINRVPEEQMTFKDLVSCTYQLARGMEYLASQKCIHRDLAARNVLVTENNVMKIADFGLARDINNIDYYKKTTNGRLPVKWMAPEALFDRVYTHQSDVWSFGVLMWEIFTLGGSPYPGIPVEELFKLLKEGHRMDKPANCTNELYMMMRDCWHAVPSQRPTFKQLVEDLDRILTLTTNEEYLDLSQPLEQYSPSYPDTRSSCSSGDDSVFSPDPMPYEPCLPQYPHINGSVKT

Chain of Tel-FGFR4 (P22455 other isoform, or with tags, fused parts or gaps): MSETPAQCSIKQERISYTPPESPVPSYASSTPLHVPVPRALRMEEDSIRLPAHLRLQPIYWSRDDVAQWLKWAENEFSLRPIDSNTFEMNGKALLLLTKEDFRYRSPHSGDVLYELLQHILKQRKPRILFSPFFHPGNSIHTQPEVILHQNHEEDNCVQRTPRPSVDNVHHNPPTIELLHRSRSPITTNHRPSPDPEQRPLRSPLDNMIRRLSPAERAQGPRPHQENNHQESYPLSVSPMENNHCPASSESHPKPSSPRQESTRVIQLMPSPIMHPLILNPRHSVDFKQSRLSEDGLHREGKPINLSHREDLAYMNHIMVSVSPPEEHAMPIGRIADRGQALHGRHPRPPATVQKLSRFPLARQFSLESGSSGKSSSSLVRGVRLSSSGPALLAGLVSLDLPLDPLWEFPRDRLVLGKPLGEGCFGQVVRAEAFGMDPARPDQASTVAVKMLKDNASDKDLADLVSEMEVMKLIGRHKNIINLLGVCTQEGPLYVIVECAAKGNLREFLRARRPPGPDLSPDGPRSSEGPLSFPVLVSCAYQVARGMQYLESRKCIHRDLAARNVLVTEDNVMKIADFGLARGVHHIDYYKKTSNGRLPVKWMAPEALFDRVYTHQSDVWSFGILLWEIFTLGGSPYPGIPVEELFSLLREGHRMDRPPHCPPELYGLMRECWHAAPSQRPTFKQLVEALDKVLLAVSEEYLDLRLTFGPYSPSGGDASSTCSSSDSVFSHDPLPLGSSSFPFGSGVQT
Chain of FGFR4 (GST-FGFR4(388-802)) (P22455 388-802): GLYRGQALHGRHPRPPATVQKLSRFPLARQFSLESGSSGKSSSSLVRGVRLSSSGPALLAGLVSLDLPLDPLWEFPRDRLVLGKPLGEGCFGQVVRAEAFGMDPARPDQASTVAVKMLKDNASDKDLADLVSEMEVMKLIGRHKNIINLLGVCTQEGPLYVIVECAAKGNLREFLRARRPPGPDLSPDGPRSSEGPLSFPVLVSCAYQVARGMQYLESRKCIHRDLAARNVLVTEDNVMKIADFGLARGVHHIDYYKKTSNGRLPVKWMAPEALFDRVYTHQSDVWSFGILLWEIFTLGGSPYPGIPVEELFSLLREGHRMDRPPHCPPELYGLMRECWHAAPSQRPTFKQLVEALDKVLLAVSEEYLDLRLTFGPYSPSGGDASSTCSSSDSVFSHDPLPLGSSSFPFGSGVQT

For the compound `COCCNc1cc(NC(=O)N2CCCc3cc(-n4ccnc4)c(C=O)nc32)ncc1C#N` [Example 254, N-(5-cyano-4-((2-methoxyethyl)amino)pyridin-2-yl)-7-formyl-6-(1H-imidazol-1-yl)-3,4-dihydro-1,8-naphthyridine-1(2H)-carboxamide], the results for the IC50 (in experiment [1]; in experiment [2]; at Tel-FGFR4) were 1.1 nM, 1160 nM and 44.5 nM, respectively.

With `CC(C)Oc1cc(NC(=O)N2CCc3ccc(C=O)nc32)ncc1C#N` [Example 234, N-(5-cyano-4-isopropoxypyridin-2-yl)-6-formyl-2,3-dihydro-1H-pyrrolo[2,3-b]pyridine-1-carboxamide], the IC50 against FGFR3 (411-806), against FGFR1 (407-822) and against FGFR2 (406-821) was above 10000 nM each time.

Consider `N#Cc1cnc(NC(=O)N2CCCc3cc(CO)c(C=O)nc32)cc1N[C@@H]1[C@H]2CC[C@H](C2)[C@@H]1CO` (racemic) [Example 65, N-(5-cyano-4-(((1S*,2R*,3S*,4R*)-3-(hydroxymethyl)bicyclo[2.2.1]heptan-2-yl)amino)pyridin-2-yl)-7-formyl-6-(hydroxymethyl)-3,4-dihydro-1,8-naphthyridine-1(2H)-carboxamide], for which the IC50 in experiment [1] was determined as 0.8 nM; in experiment [2], 65 nM; on Tel-FGFR4 it was 14.6 nM.

On to `N#Cc1cnc(NC(=O)N2CCCc3cc(CO)c(C=O)nc32)cc1OCC1CCCCO1` (racemic) [Example 44, N-(5-cyano-4-((tetrahydro-2H-pyran-2-yl)methoxy)pyridin-2-yl)-7-formyl-6-(hydroxymethyl)-3,4-dihydro-1,8-naphthyridine-1(2H)-carboxamide], for which the IC50 in experiment [1] was 8.1 nM; in experiment [2] it was 1230 nM; on Tel-FGFR4, 31.3 nM.

With `COCCNc1cc(NC(=O)N2CCCc3cc(CN(CCN(C)C)S(C)(=O)=O)c(C=O)nc32)ncc1C#N` [Example 144, N-(5-cyano-4-((2-methoxyethyl)amino)pyridin-2-yl)-6-((N-(2-(dimethylamino)ethyl)methylsulfonamido)methyl)-7-formyl-3,4-dihydro-1,8-naphthyridine-1(2H)-carboxamide], the IC50 in experiment [1] stood at 2.3 nM; in experiment [2], 504 nM; at Tel-FGFR4, 18.5 nM.

As to `COCCOc1cc(NC(=O)N2CCCc3cc(C(F)F)c(C=O)nc32)ncc1C#N` [Example 63, N-(5-cyano-4-(2-methoxyethoxyl)pyridin-2-yl)-6-(difluoromethyl)-7-formyl-3,4-dihydro-1,8-naphthyridine-1(2H)-carboxamide], the IC50 against FGFR3 (411-806), at FGFR1 (407-822) and on FGFR2 (406-821) was above 10000 nM in each case.

Regarding `O=Cc1ccc2c(n1)N(C(=O)Nc1ccc(C(F)(F)F)cn1)CCO2` [Example 14, 6-formyl-N-(5-(trifluoromethyl)pyridin-2-yl)-2H-pyrido[3,2-b][1,4]oxazine-4(3H)-carboxamide], the IC50 against FGFR3 (411-806), on FGFR1 (407-822) and at FGFR2 (406-821) was above 10000 nM each time.

Turning to `O=Cc1ccc2c(n1)N(C(=O)Nc1ccc(C(F)(F)F)cn1)CCC2` [Example 1, 7-formyl-N-(5-(trifluoromethyl)pyridin-2-yl)-3,4-dihydro-1,8-naphthyridine-1(2H)-carboxamide], the IC50 at FGFR3 (411-806), on FGFR1 (407-822) and against FGFR2 (406-821) was above 10000 nM in each case.

As to `CN1CC[C@@H](Oc2cc(NC(=O)N3CCCc4cc(CO)c(C=O)nc43)ncc2C#N)C1` [Example 54, (R)-N-(5-cyano-4-((1-methylpyrrolidin-3-yl)oxy)pyridin-2-yl)-7-formyl-6-(hydroxymethyl)-3,4-dihydro-1,8-naphthyridine-1(2H)-carboxamide], the IC50 at FGFR3 (411-806), at FGFR1 (407-822) and against FGFR2 (406-821) was above 10000 nM each time.

Regarding `COC[C@@H](Oc1cc(NC(=O)N2CCCc3cc(C(F)F)c(C=O)nc32)ncc1C#N)C(F)(F)F` [Example 173, (R)-N-(5-cyano-4-((1,1,1-trifluoro-3-methoxypropan-2-yl)oxy)pyridin-2-yl)-6-(difluoromethyl)-7-formyl-3,4-dihydro-1,8-naphthyridine-1(2H)-carboxamide], the values for the IC50 (in experiment [1]; in experiment [2]; on Tel-FGFR4) were 33 nM, 1360 nM and 142 nM, respectively.

Turning to `COCCNc1cc(NC(=O)N2CCCc3cc(CN4CC[C@H](O)C4=O)c(C=O)nc32)ncc1C#N` [Example 100, (S)-N-(5-cyano-4-((2-methoxyethyl)amino)pyridin-2-yl)-7-formyl-6-((3-hydroxy-2-oxopyrrolidin-1-yl)methyl)-3,4-dihydro-1,8-naphthyridine-1(2H)-carboxamide], the IC50 in experiment [1] was 0.9 nM; in experiment [2], 23.5 nM; on Tel-FGFR4 it was 5.3 nM.

In the case of `CCOc1cc(NC(=O)N2CCCc3ccc(C=O)nc32)ncc1C#N` [Example 19, N-(5-cyano-4-ethoxypyridin-2-yl)-7-formyl-3,4-dihydro-1,8-naphthyridine-1(2H)-carboxamide], the IC50 against FGFR3 (411-806), against FGFR1 (407-822) and on FGFR2 (406-821) was above 10000 nM throughout.

For `COCCNc1cc(NC(=O)N2CCCc3cc(C4CCOCC4)c(C=O)nc32)ncc1C#N` [Example 249, N-(5-cyano-4-((2-methoxyethyl)amino)pyridin-2-yl)-7-formyl-6-(tetrahydro-2H-pyran-4-yl)-3,4-dihydro-1,8-naphthyridine-1(2H)-carboxamide], the values for the IC50 (against FGFR1 (407-822); at FGFR2 (406-821); in experiment [2]) were above 10000 nM, above 10000 nM and 222 nM, respectively.

Take `COCCNc1cc(NC(=O)N2CCCc3cc(CN4CCOCC4=O)c(C=O)nc32)ncc1C#N` [Example 98, N-(5-cyano-4-((2-methoxyethyl)amino)pyridin-2-yl)-7-formyl-6-((3-oxomorpholino)methyl)-3,4-dihydro-1,8-naphthyridine-1(2H)-carboxamide]: the IC50 at FGFR3 (411-806), against FGFR1 (407-822) and at FGFR2 (406-821) was above 10000 nM in each case.

As to `N#Cc1ccc(NC(=O)N2CCCCc3ccc(C=O)nc32)nc1` [Example 201, N-(5-cyanopyridin-2-yl)-2-formyl-7,8-dihydro-5H-pyrido[2,3-b]azepine-9(6H)-carboxamide], the IC50 at FGFR3 (411-806), at FGFR1 (407-822) and at FGFR2 (406-821) was above 10000 nM throughout.

For the compound `N#Cc1cnc(NC(=O)N2CCCc3cc(CN4CCCC4=O)c(C=O)nc32)cc1OCC1CCNC(=O)C1` (racemic) [Example 225, N-(5-cyano-4-((2-oxopiperidin-4-yl)methoxy)pyridin-2-yl)-7-formyl-6-((2-oxopyrrolidin-1-yl)methyl)-3,4-dihydro-1,8-naphthyridine-1(2H)-carboxamide], the IC50 in experiment [1] came out at 5.7 nM; in experiment [2], 1000 nM; at Tel-FGFR4, 76.5 nM.

Turning to `CN(C)CCOc1cc(NC(=O)N2CCCc3ccc(C=O)nc32)ncc1C#N` [Example 38, N-(5-cyano-4-(2-(dimethylamino)ethoxy)pyridin-2-yl)-7-formyl-3,4-dihydro-1,8-naphthyridine-1(2H)-carboxamide], the IC50 on FGFR3 (411-806), at FGFR1 (407-822) and against FGFR2 (406-821) was above 10000 nM each time.

As for `CC(=O)N(C)Cc1cc2c(nc1C=O)N(C(=O)Nc1cc(NCCOC(F)(F)F)c(C#N)cn1)CCC2` [Example 188, N-(5-cyano-4-((2-(trifluoromethoxy)ethyl)amino)pyridin-2-yl)-7-formyl-6-((N-methylacetamido)methyl)-3,4-dihydro-1,8-naphthyridine-1(2H)-carboxamide], the figures for the IC50 (in experiment [1]; in experiment [2]; on Tel-FGFR4) were 0.4 nM, 59 nM and 5.2 nM, respectively.

Consider `CC(C)Oc1cc(NC(=O)N2CCCc3cc(CN(C)C(=O)CN(C)C)c(C=O)nc32)ncc1C#N` [Example 145, N-(5-cyano-4-isopropoxypyridin-2-yl)-6-((2-(dimethylamino)-N-methylacetamido)methyl)-7-formyl-3,4-dihydro-1,8-naphthyridine-1(2H)-carboxamide], for which the figures for the IC50 (in experiment [1]; in experiment [2]; on Tel-FGFR4) were 0.4 nM, 154 nM and 15 nM, respectively.

As for `CC(C)n1cnc2cnc(NC(=O)N3CCCc4cc(CN5CCCC5=O)c(C=O)nc43)cc21` [Example 220, 7-formyl-N-(1-isopropyl-1H-imidazo[4,5-c]pyridin-6-yl)-6-((2-oxopyrrolidin-1-yl)methyl)-3,4-dihydro-1,8-naphthyridine-1(2H)-carboxamide], the IC50 in experiment [1] is 96 nM; in experiment [2], above 3000 nM; on Tel-FGFR4 it was 94 nM.

With `CCc1cc(NC(=O)N2CCCc3cc(C=O)c(C=O)nc32)ncc1C#N` [Example 106, N-(5-cyano-4-ethylpyridin-2-yl)-6,7-diformyl-3,4-dihydro-1,8-naphthyridine-1(2H)-carboxamide], the results for the IC50 (in experiment [1]; in experiment [2]; on Tel-FGFR4) were 95 nM, above 3000 nM and 2530 nM, respectively.

Consider `COCCNc1cc(NC(=O)N2CCCc3cc(CN4CC[C@@H](O)C4=O)c(C=O)nc32)ncc1C#N` [Example 105, (R)-N-(5-cyano-4-((2-methoxyethyl)amino)pyridin-2-yl)-7-formyl-6-((3-hydroxy-2-oxopyrrolidin-1-yl)methyl)-3,4-dihydro-1,8-naphthyridine-1(2H)-carboxamide], for which the figures for the IC50 (in experiment [1]; in experiment [2]; on Tel-FGFR4) were 0.8 nM, 32.5 nM and 6.2 nM, respectively.

In the case of `COCCNc1cc(NC(=O)N2CCCc3cc(N4CCOC4=O)c(C=O)nc32)ncc1C#N` [Example 263, N-(5-cyano-4-((2-methoxyethyl)amino)pyridin-2-yl)-7-formyl-6-(2-oxooxazolidin-3-yl)-3,4-dihydro-1,8-naphthyridine-1(2H)-carboxamide], the IC50 in experiment [1] was found to be 0.2 nM; in experiment [2], 894 nM; at Tel-FGFR4, 11 nM.
